# Measured values reported in PMC8518411, “Discovery of GPR183 Agonists Based on an Antagonist Scaffold” (Chemmedchem, 2021).
# Entries after “also recorded” stand apart in the source; their conditions may differ. Like-named read-outs stand apart in the source and are kept apart here.
# Experiments:
# GPR183 [1] = molecular target: T1, GPR183 (Homo sapiens, UniProt P32249); experiment: cell-based
# GPR183 [2] = molecular target: T1, GPR183; format: cell-based; design: hemagglutinin signal peptide (upstream of the FLAG tag) (N); expressed in transfected cells; host or cells: CHO-K1 (ATCC CCL-61), transient lipofection, modified pcDNA3 vector; conditions: for agonist activity in calcium mobilization screen: 10 μM compound
# GPR183 [3] = molecular target: T1, GPR183; experiment: BRET cAMP (CAMYEL biosensor) assay, antagonist mode (antagonist added 10 min prior to agonist); format: cell-based; design: hemagglutinin signal peptide (upstream of the FLAG tag) (N); expressed in transfected cells; host or cells: CHO-K1 (ATCC CCL-61), transient lipofection, modified pcDNA3 vector
# GPR183 [4] = molecular target: T1, GPR183; conditions: dose-response, BRET
# [5] = calcium assay dose-response, mean of 3 experiments in duplicates, read-out: EC50 (potency)
# [6] = EC50 (potency), Gαi coupling, BRET, three experiments
# T1 sequence (P32249 whole entry): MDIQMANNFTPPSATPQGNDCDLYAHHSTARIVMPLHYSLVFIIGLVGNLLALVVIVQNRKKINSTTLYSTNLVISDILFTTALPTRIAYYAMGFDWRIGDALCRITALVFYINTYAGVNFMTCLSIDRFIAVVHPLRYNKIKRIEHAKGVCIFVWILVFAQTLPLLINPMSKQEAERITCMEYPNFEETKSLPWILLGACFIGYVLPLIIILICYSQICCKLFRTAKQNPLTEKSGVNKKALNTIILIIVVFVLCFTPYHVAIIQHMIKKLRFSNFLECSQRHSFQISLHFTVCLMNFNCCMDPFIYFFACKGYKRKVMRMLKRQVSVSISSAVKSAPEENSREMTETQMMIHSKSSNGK
smiles,measurement,setting,value
"C[C@H](CCCC(C)(C)O)[C@H]1CC[C@H]2[C@@H]3[C@H](O)C=C4C[C@@H](O)CC[C@]4(C)[C@H]3CC[C@]12C [Compound 1, 7α,25‐dihydroxycholesterol, reference compound]",EC50,GPR183 [1],19 nM
same,EC50,GPR183 [2],17 nM
Cc1nn(C)c(C)c1/C=C/C(=O)N1CCN(C(=O)C2COc3ccccc3O2)CC1 (centres unmarked) [Compound 9],EC50,GPR183 [2]; [5],634 nM
O=C(/C=C/c1cccs1)N1CCN(C(=O)c2cccc3ccccc23)CC1 [Compound 10],EC50,GPR183 [2]; [5],86 nM
O=C(/C=C/c1ccccc1Br)N1CCN(C(=O)Cc2ccc(F)cc2)CC1 [Compound 12],EC50,GPR183 [2]; [5],107 nM
O=C(CCC1CCCC1)N1CCN(C(=O)c2cc(=O)c3ccccc3o2)CC1 [Compound 13],EC50,GPR183 [2]; [5],165 nM
O=C(COc1cccc2ccccc12)N1CCN(C(=O)c2ccccc2)CC1 [Compound 15],EC50,GPR183 [1]; [6],660 nM
same,EC50,GPR183 [2]; [5],209 nM
COc1cc(C(=O)N2CCN(C(=O)COc3ccc(Cl)cc3C)CC2)ccc1C [Compound 16],EC50,GPR183 [1]; [6],51 nM
same,EC50,"GPR183 [1]; pEC50±SE, Gαi coupling, BRET",50.1 nM
same,EC50,GPR183 [2]; [5],179 nM
O=C(COc1ccc(F)cc1Br)N1CCN(C(=O)C2COc3ccccc3O2)CC1 (centres unmarked) [Compound 17],EC50,GPR183 [2]; [5],278 nM
O=C(COc1ccc(F)cc1Cl)N1CCN(C(=O)c2cccs2)CC1 [Compound 18],agonist activity in calcium mobilization screen,GPR183 [2],active
same,EC50,GPR183 [2]; [5],740 nM
O=C(COc1ccc2c(c1)CCC2)N1CCN(C(=O)c2cccs2)CC1 [Compound 69],agonist activity in calcium mobilization screen,GPR183 [2],inactive
O=C(/C=C/c1ccccc1)N1CCN(C(=O)c2ccccc2)CC1 [Compound 88],inhibition at 10 µM,"GPR183 [3]; 10 μM (highest concentration tested), 10 nM of agonist 1 after preincubation, read-out: inhibition of G protein activity induced by 1",79%
O=C(COc1ccccc1)N1CCN(C(=O)c2ccccc2)CC1 [Compound 90],antagonist properties (inhibition of G protein activity induced by 1),GPR183 [3]; 10 nM of agonist 1 after preincubation with compound,did not inhibit
same,agonist activity (Gαi coupling),GPR183 [4],inactive
Cc1cc(Cl)ccc1OCC(=O)N1CCN(C(=O)c2ccccc2)CC1 [Compound 91],agonist activity (Gαi coupling),GPR183 [4],partial agonist properties; also recorded: active
same,EC50,GPR183 [1]; [6],64 nM
same,EC50,"GPR183 [1]; pEC50±SE, Gαi coupling, BRET",63.1 nM
COc1cc(C(=O)N2CCN(C(=O)COc3cccc4ccccc34)CC2)ccc1C [Compound 92],agonist activity (Gαi coupling),GPR183 [4],partial agonist properties
same,EC50,GPR183 [1]; [6],757 nM
